Experimental findings from US20190055256A1, “ANTI-VIRAL DRUG” (DORING INTERNATIONAL GMBH, priority 2016, published 2019) are described below.

The data set can be described thus: Physical and chemical characteristics: solubility in solvents. Type of data set: physicochemical.

For “sodium salt of 7-methylthio-3-nitro [1, 2, 4] triazolo [5,1-c] [1, 2, 4] triazin-4 (1H)-one”, the solubility in acetone entry (solvent: acetone) is “soluble”. Besides, for the setting “solvent: chloroform”, the solubility in chloroform result is given as “insoluble”. The solubility in dimethylformamide entry (solvent: dimethylformamide) was “soluble”. Besides, for the setting “solvent: dimethylsulfoxide”, the solubility in dimethylsulfoxide result is “soluble”. Also, the solubility in water entry (solvent: water) was “soluble”.
